Experimental data as given in patent US8703438B2, “Ligand binding stabilization method for drug target identification” (The Regents of the University of California, priority 2008, dated 2014).

Experiments:
[1] = biological target: T1, proteins of S. cerevisiae BY4742 cell lysates (Saccharomyces cerevisiae, UniProt P10081); assay: DARTS with yeast cell lysates incubated in vitro with resveratrol, mass spectrometry of protected bands; type: binding; details: 1 mM resveratrol, Upper band
T1 construct: endogenous in cells; host or cells: S. cerevisiae BY4742
Procedure: (§1) For DARTS using yeast cell lysates incubated in vitro with resveratrol (FIG. 4B), S. cerevisiae BY4742 cells were used.
(§2) Gel bands were cut out and prepared for mass spec analysis with trypsin digestion as described in SI. Peptides were analyzed by LC/MS/MS on a Thermo LTQ-Orbitrap mass spectrometer with an Eksigent LC pump. For quantitative comparison of protein and peptide abundances, MS spectra were analyzed using the differential workflow of Rosetta Elucidator (Rosetta Inpharmatics) (54). Annotation was performed using PeptideTeller and ProteinTeller (see SI).
(§3) Proteins were initially identified by searching the spectra against the human International Protein Index database (version 3.46) and the S. cerevisiae Swissprot database (May 2008) using the SEQUEST algorithm (Eng et al. (1994) J Am Soc Mass Spectrom 5: 976-989) integrated into the Bioworks software package. Each peptide met the following criteria: XCorr ≧2 (+1), ≧3 (+2), ≧4 (+3), ≧5 (+4), and DeltaCN>0.1. For quantitative comparison of protein and peptide abundances, MS spectra were analyzed using the differential workflow of the Rosetta Elucidator software system (Rosetta Inpharmatics) (Neubert et al. (2008) J Proteome Res 7: 2270-2279). Annotation was performed using PeptideTeller and ProteinTeller with a minimum probability of 0.99 and predicted error of 0.0. Protein ratio data were generated with a P-value cutoff of 0.01 for all proteins with a peptide number >1. Intensity scaling was performed against the mean of feature signals, with 10% of outliers removed from the baseline dataset. Similar results were obtained in analysis without intensity scaling (FIG. 9A).
(§4) For the DARTS experiment using yeast cell lysates incubated in vitro with resveratrol, BY4742 cells were suspended in yeast extraction buffer (Grant et al. (1999) Meth. Mol Biol 119: 311-317) [(40 mM HEPES/KOH pH 7.5, 350 mM NaCl, 0.5 mM DTT, 10% glycerol, 0.1% Tween-20) supplemented with Roche complete protease inhibitor cocktail (Roche Diagnostics, Indianapolis, Ind.)]. Cell pellets were broken with glass beads for 2×40 s at 4° C. in a FastPrep-24 (MP Biomedicals, Solon, Ohio). Whole cell lysates were collected after centrifugation (1500 rpm, 10 min). Lysates were incubated with ethanol control or 1 mM resveratrol for 30 min at room temperature. Samples were then divided into two aliquots, which underwent proteolysis with thermolysin or mock proteolysis.

[2] = tested on: proteins of S. cerevisiae BY4742 cell lysates; assay: as above; type: binding; details: 1 mM resveratrol
Procedure: as §1, §2, §3, §4

C. elegans N2 worms = assay: C. elegans lifespan analysis; type: in vivo; details: resveratrol 50 μM
Source text: FIG. 4A: Chemical structure of resveratrol. FIG. 4B: Yeast cell lysates and human HeLa cell lysates were each treated with resveratrol in vitro followed by thermolysin digestion and silver staining. Protected bands of similar size were detected. FIG. 4C: Resveratrol protects TAP-tagged eIF4A, but not an unrelated Htb2, protein from proteolysis. Arrow: protein protected from subtilisin proteolysis (H. sapiens (SEQ ID NO:1), M. musculus (SEQ ID NO:2), X. laevis (SEQ ID NO:3), D. melanogaster (SEQ ID NO:4), C. elegans (SEQ ID NO:5), S. purpuratus (SEQ ID NO:6), C. reinhardtii (SEQ ID NO:7), A. thaliana (SEQ ID NO:8), H. andersenii (SEQ ID NO:9), S. cerevisiae (SEQ ID NO:10)). FIG. 4D: Resveratrol inhibits eIF4A-dependent translation in HEK 293 cells as assayed by bicistronic translation reporters. […] FIG. 4E: eIF4A is required for longevity in resveratrol-treated animals. Resveratrol (50 μM) lengthens the lifespan of wild-type N2 worms fed control (gfp) RNAi (green), but not worms fed eIF4A (inf-1) RNAi (red) or daf-16 RNAi (blue). gfp(RNAi), mVeh=19 (n=74), mRSV=20 (n=78), P=0.0006***; inf-1(RNAi), mVeh=26 (n=76), mRSV=24 (n=79), P=0.4687; daf-16(RNAi), mVeh=17 (n=78), mRSV=17 (n=76), P=0.3305. m, mean lifespan (days of adulthood); n, number of animals tested.
N2 wild-type strains were maintained at 20° C. on standard nematode growth medium (NGM) seeded with E. coli OP50 as described (Brenner (1974) Genetics 77: 71-94). E. coli RNAi strains were obtained from Open Biosystems; clones were verified by sequencing. To make NGM plates containing resveratrol or vehicle, 240 μl of a solution containing 2.5 mM resveratrol (or the equivalent amount of ethanol, for vehicle control), 20% DMSO, 20% ethanol, 10% phosphate buffered saline (PBS), and 50% ddH20 were spread on top of the NGM plate, making a 50 μM final concentration of resveratrol in the plate. Resveratrol was dissolved in 95% ethanol and stored in 4° C.
Lifespan analysis was conducted with N2 worms at 20° C. Eggs were added to NGM plates containing OP50. […]

T1 sequence (P10081 whole entry): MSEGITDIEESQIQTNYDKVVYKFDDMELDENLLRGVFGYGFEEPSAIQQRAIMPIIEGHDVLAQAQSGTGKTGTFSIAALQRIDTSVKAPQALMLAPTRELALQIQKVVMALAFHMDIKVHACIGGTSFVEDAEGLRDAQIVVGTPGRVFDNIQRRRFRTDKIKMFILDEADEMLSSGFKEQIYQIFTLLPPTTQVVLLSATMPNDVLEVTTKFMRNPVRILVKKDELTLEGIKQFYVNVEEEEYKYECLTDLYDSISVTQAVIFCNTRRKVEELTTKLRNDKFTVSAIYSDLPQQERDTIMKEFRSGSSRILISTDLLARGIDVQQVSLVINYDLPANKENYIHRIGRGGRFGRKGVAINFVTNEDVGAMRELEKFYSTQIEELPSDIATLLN

For `Oc1ccc(C=Cc2cc(O)cc(O)c2)cc1` [resveratrol], the “Fold Change, ATP-dependent RNA helicase eIF4A” value [1] was 1.961, the “Fold Change, 40S ribosomal protein S12” value ([2]; Lower band) was 2.07 and the “Fold Change, 40S ribosomal protein S15” value ([2]; Lower band) was 3.677. For the same compound, the “Fold Change, 40S ribosomal protein S16” value ([2]; Lower band) was 2.906, the “Fold Change, 40S ribosomal protein S18” value ([2]; Lower band) was 2.412 and the “Fold Change, 40S ribosomal protein S19” value ([2]; Lower band) was 1.965. For the same compound, the “Fold Change, 40S ribosomal protein S24” value ([2]; Lower band) was 1.481, the “Fold Change, 40S ribosomal protein S26-B” value ([2]; Lower band) was 2.429 and the “Fold Change, 60S ribosomal protein L14-A” value ([2]; Lower band) was 1.614. For the same compound, the “Fold Change, 60S ribosomal protein L25” value ([2]; Lower band) was 3.564, the “Fold Change, 60S ribosomal protein L26-A” value ([2]; Lower band) was 9.181 and the “Fold Change, 60S ribosomal protein L26-B” value ([2]; Lower band) was 11.107. The “Fold Change, 60S ribosomal protein L34” value ([2]; Lower band) was 2.383, the “Fold Change, 60S ribosomal protein L35” value ([2]; Lower band) was 3.774 and the “Fold Change, Histone H2A” value ([2]; Lower band) was 3.002. The “Fold Change, Histone H2B” value ([2]; Lower band) was 2.229, the “Fold Change, Ornithine aminotransferase” value ([2]; Lower band) was 2.531 and the “Fold Change, 40S ribosomal protein S23” value ([2]; Upper band) was 4.84. For the same compound, the “Fold Change, 40S ribosomal protein S26” value ([2]; Upper band) was 4.701, the “Fold Change, 60S ribosomal protein L21-A” value ([2]; Upper band) was 2.777 and the “Fold Change, 60S ribosomal protein L24” value ([2]; Upper band) was 6.05. The “Fold Change, 60S ribosomal protein L25” value ([2]; Upper band) was 2.713, the “Fold Change, 60S ribosomal protein L27-A” value ([2]; Upper band) was 2.554 and the “Fold Change, 60S ribosomal protein L28” value ([2]; Upper band) was 1.804. The mean lifespan (C. elegans N2 worms; N2 worms fed daf-16(RNAi), vehicle 17, P=0.3305) was 17 days of adulthood, the mean lifespan (C. elegans N2 worms; N2 worms fed gfp(RNAi) control, vehicle 19, P=0.0006) was 20 days of adulthood and the mean lifespan (C. elegans N2 worms; N2 worms fed inf-1(RNAi) (eIF4A), vehicle 26, P=0.4687) was 24 days of adulthood.
